Assay results: US20030176390A1, “Methods of treating insulin resistance syndrome and diabetes” (priority 2001, published 2003)

system: not given; assay: not given; settings: not given

Row | melting point | SMILES
1 | 154 to 156 °C | OC[C@H]1O[C@@H](n2cnc3c(N[C@H]4CCN(c5ccc(Cl)cn5)C4)ncnc32)[C@H](O)[C@@H]1O [Example 8, (2R,3R,4S,5R)-5-hydroxymethyl-2-[6-[1-(5-chloropyridin-2-yl)-pyrrolidin-3(S)-ylamino]-purin-9-yl]-tetrahydrofuran-3,4-diol]
2 | 100 to 102 °C | OC[C@H]1C[C@@H](n2cnc3c(N[C@H]4CCN(Cc5ccccc5)C4)ncnc32)[C@H](O)[C@@H]1O [Example 59, (1R,2S,3R,5R)-3-[6-(1-benzyl-pyrrolidin-3(S)-ylamino)purin-9-yl]-5-hydroxymethylcyclopentane-1,2-diol]
3 | 206 to 212 °C (dec.) | CC[C@@H](C)NC(=O)[C@H]1C[C@@H](n2cnc3c(N[C@H]4CCN(c5ccc(C(F)(F)F)cn5)C4)ncnc32)[C@H](O)[C@@H]1O [Example 62, (1S,2R,3S,4R)-2,3-dihydroxy-4-{6-[1-(5-trifluoromethyl-pyridin-2-yl)-pyrrolidin-3(S)-ylamino]-purin-9-yl}-cyclopentanecarboxylic acid-1(R)-methylpropylamide]
4 | 126 to 128 °C | O=[N+]([O-])c1ccc(N2CCC(Nc3ncnc4c3ncn4[C@@H]3C[C@H](CO)[C@@H](O)[C@H]3O)CC2)cc1 [Example 25, (1R,2S,3R,5R)-5-hydroxymethyl-3-[6-[1-(4-nitrophenyl)piperidin-4-ylamino]-purin-9-yl]cyclopentane-1,2-diol]
5 | 180 to 182 °C | OC[C@H]1C[C@@H](n2cnc3c(N[C@H]4CCN(c5cc(Cl)ncn5)C4)ncnc32)[C@H](O)[C@@H]1O [Example 45, (1R,2S,3R,5R)-3-[6-[1-(6-chloropyrimidin-4-yl)pyrrolidin-3(S)-ylamino]-purin-9-yl]-5-hydroxymethylcyclopentane-1,2-diol]
6 | 164 to 166 °C | Cc1ccc(N2CC[C@H](Nc3ncnc4c3ncn4[C@@H]3O[C@H](CO)[C@@H](O)[C@H]3O)C2)nc1 [Example 17, (2R,3R,4S,5R)-5-hydroxymethyl-2-[6-[1-(5-methylpyridin-2-yl)-pyrrolidin-3(S)-ylamino]-purin-9-yl]tetrahydrofuran-3,4-diol]
7 | 106 °C | COC[C@H]1C[C@@H](n2cnc3c(N[C@H]4CCN(c5ccccc5)C4)ncnc32)[C@H](O)[C@@H]1O [Example 58, (1R,2S,3R,5R)-5-methoxymethyl-3-[6-[1-phenylpyrrolidin-3-(S)-ylamino]-purin-9-yl]cyclopentan-1,2-diol]
8 | 193 to 195 °C | OC[C@H]1O[C@@H](n2cnc3c(N[C@H]4CCN(c5ccccn5)C4)ncnc32)[C@H](O)[C@@H]1O [Example 15, (2R,3R,4S,5R)-5-hydroxymethyl-2-[6-(1-pyridin-2-ylpyrrolidin-3(S)-ylamino]-purin-9-yl]tetrahydrofuran-3,4-diol]
9 | 121 to 124 °C | OC[C@H]1O[C@@H](n2cnc3c(N[C@H]4CCN(c5ccc(Cl)cc5)C4)ncnc32)[C@H](O)[C@@H]1O [Example 16, (2R,3R,4S,5R)-5-hydroxymethyl-2-[6-[1-(4-chlorophenyl)-pyrrolidin-3(S)-ylamino]-purin-9-yl]-tetrahydrofuran-3,4-diol]
10 | 166 to 170 °C | OC[C@H]1O[C@@H](n2cnc3c(N[C@@H]4CCN(c5ccc(C(F)(F)F)cn5)C4)ncnc32)[C@H](O)[C@@H]1O (hydrate or solvate) [Example 4, (2R,3R,4S,5R)-5-hydroxymethyl-2-[6-[1-(5-trifluoromethylpyridin-2-yl)-pyrrolidin-3(R)-ylamino]purin-9-yl]tetrahydrofuran-3,4-diol]
11 | 135 to 138 °C | OC[C@H]1C[C@@H](n2cnc3c(N[C@H]4CCN(c5cnc6ccccc6c5)C4)ncnc32)[C@H](O)[C@@H]1O [Example 36, (1R,2S,3R,5R)-5-hydroxymethyl-3-[6-[1-(quinolin-3-yl)pyrrolidin-3(S)-ylamino]-purin-9-yl]cyclopentane-1,2-diol]
12 | 230 to 232 °C | O=[N+]([O-])c1ccc(N2CC[C@H](Nc3ncnc4c3ncn4[C@@H]3O[C@H](CO)[C@@H](O)[C@H]3O)C2)cc1 [Example 12, (2R,3R,4S,5R)-5-hydroxymethyl-2-(6-(1-(4-nitrophenyl)-pyrrolidin-3(S)-ylamino)-purin-9-yl) tetrahydrofuran-3,4-diol]
13 | 113 to 116 °C | OC[C@H]1O[C@@H](n2cnc3c(NC4CCCN(c5ccc(C(F)(F)F)cn5)C4)ncnc32)[C@H](O)[C@@H]1O (stereo partly drawn) [Example 13, (2R,3R,4S,5R)-5-hydroxymethyl-2-[6-(5′-trifluoromethyl-3,4,5,6-tetrahydro-2H-[1,2′]-bipyridinyl-3-ylamino)-purin-9-yl]tetrahydrofuran-3,4-diol]
14 | 166 °C (dec.) | OC[C@H]1C[C@@H](n2cnc3c(N[C@@H]4CCNC4)ncnc32)[C@H](O)[C@@H]1O [Example 28, (1R,2S,3R,5R)-5-hydroxymethyl-3-[6-((3R)-pyrrolidin-3-ylamino)-purin-9-yl]cyclopentane-1,2-diol]
15 | 118 to 120 °C | COC[C@H]1C[C@@H](n2cnc3c(N[C@H]4CCN(c5cc(OC)ncn5)C4)ncnc32)[C@H](O)[C@@H]1O [Example 48, (1R,2S,3R,5R)-5-methoxymethyl-3-[6-[1-(6-methoxypyrimidin-4-yl)pyrrolidin-3(S)-ylamino]-purin-9-yl]cyclopentane-1,2-diol]
16 | 231 to 233 °C | CSc1ccc(N2CC[C@H](Nc3ncnc4c3ncn4[C@@H]3O[C@H](CO)[C@@H](O)[C@H]3O)C2)nc1 [Example 19, (2R,3R,4S,5R)-5-hydroxymethyl-2-[6-[1-(5-methylmercaptopyridin-2-yl)-pyrrolidin-3(S)-ylamino]-purin-9-yl]tetrahydrofuran-3,4-diol]
17 | 157 to 158 °C | CC(C)OC[C@H]1C[C@@H](n2cnc3c(N[C@H]4CCN(c5ccc(C(F)(F)F)cn5)C4)ncnc32)[C@H](O)[C@@H]1O [Example 49, (1R,2S,3R,5R)-5-isopropoxymethyl-3-[6-[1-(5-trifluoromethylpyridin2-yl)pyrrolidin-3(S)-ylamino]-purin-9-yl]cyclopentane-1,2-diol]
18 | 187 to 190 °C | OC[C@H]1O[C@@H](n2cnc3c(N[C@H]4CCN(c5cc(C(F)(F)F)ccn5)C4)ncnc32)[C@H](O)[C@@H]1O [Example 10, (2R,3R,4S,5R)-5-hydroxymethyl-2-[6-[1-(4-trifluoromethylpyridin-2-yl)-pyrrolidin-3(S)-ylamino]-purin-9-yl]tetrahydrofuran-3,4-diol]
19 | 198 to 200 °C | COC[C@H]1O[C@@H](n2cnc3c(N[C@H]4CCN(c5ccc(C(F)(F)F)cn5)C4)ncnc32)[C@H](O)[C@@H]1O [Example 23, (2R,3R,4S,5R) -5-methoxymethyl-2-[6-[1-(5-trifluoromethylpyridin-2-yl)-pyrrolidin-3(S)-ylamino]-purin-9-yl]tetrahydrofuran-3,4-diol]
20 | 95 to 96 °C | COC[C@H]1C[C@@H](n2cnc3c(N[C@H]4CCN(Cc5ccccc5)C4)ncnc32)[C@H](O)[C@@H]1O [Example 60, (1R,2S,3R,5R)-3-[6-(1-benzyl-pyrrolidin-3(S)-ylamino)purin-9-yl]-5-methoxymethylcyclopentane-1,2-diol]

system: rat adipocytes; assay: In vitro lipolysis assay (antilipolytic activity in rat adipocytes); format: cell-based; settings: Rattus norvegicus, Adipocyte, 1 h; norepinephrine-stimulated lipolysis, glycerol assayed, 60 min; read-out: Lipo ec50
Procedure: Determination of Antilipolytic Activity in Rat Adipocytes
Isolation of Adipocytes from Epididymal Fat Pads
Adipose tissue is removed from anesthetized rats and rinsed twice in incubation medium (2.09 g sodium bicarbonate and 0.04 g EDTA, disodium salt, in 1 L Krebs buffer). Each rat (300-350 g) yields approximately 4 mL of adipose tissue. The adipose tissue (35 mL) is cut into small pieces with scissors and washed with incubation medium (50 mL). The mixture is poured into the barrel of a 50 mL syringe to which is attached a short piece of clamped tubing instead of a needle. The aqueous phase is allowed to drain. A second wash with incubation medium is passed through the syringe. The tissue is added to 50 mL of collagenase solution (collagenase (90 mg), bovine serum albumin (BSA) (500 mg), and 0.1 M calcium chloride solution (1 mL), in incubation medium (50 mL)) in a 1 L bottle. The mixture is shaken in an environmental at 37° C. for about 60 minutes under an atmosphere of 95% oxygen/5% carbon dioxide to effect digestion of the tissue. The dispersed cells are poured through 2 layers of cheese cloth into a 100 mL plastic beaker. The undigested clumps in the cloth are rinsed once with incubation medium (20 mL). The cells in the beaker are centrifuged in 2 plastic tubes for 30 seconds at room temperature at 300 rpm. The aqueous phase is aspirated from beneath the loosely packed layer of floating fat cells and discarded. The adipocytes are gently poured into a 250 mL plastic beaker containing 100 mL of rinse solution (1 g BSA per 100 mL incubation medium). After gentle stirring the centrifugation step is repeated. Another wash with rinse solution follows. The cells are pooled and their volume is estimated with a graduated cylinder. The adipocytes are diluted in twice their volume of assay buffer (incubation medium (120 mL), BSA (1.2 g), pyruvic acid (13 mg)).
The assay is performed in 20 mL plastic scintillation vials and the total assay volume is 4.2 mL. Assay buffer (2.5 mL), diluted adipocytes (1.5 mL), and a solution of the compound to be tested (12.3 μL) adenosine agonist (12.3 μl; varying concentration) is incubated in the environmental shaker for 15 minutes, then the reaction is started with norepinephrine solution (41.2 μL) (10 nM, in a carrier solution containing water (100 mL), BSA (4 mg), and 0.1 M EDTA (20 μL))and adenosine deaminase (1 μg/mL, 41.2 μl). After sixty minutes in the shaker the reaction is terminated by putting the vials on ice. […] The hard lipid layer is removed by aspiration and the aqueous layer is assayed for glycerol (400 μl of sample). The positive control is done in the absence of any adenosine agonist, substituting water in place of the solution to be tested.

Row | EC50 [nM] | SMILES
21 | 2.82 | O=[N+]([O-])c1ccc(N2CCC(Nc3ncnc4c3ncn4[C@@H]3C[C@H](CO)[C@@H](O)[C@H]3O)C2)cc1 (stereo partly drawn) [Example 7, (1R,2S,3R,5R)-5-hydroxymethyl-3-[6-[1-(4-nitrophenyl)pyrrolidin-3-ylamino]-purin-9-yl]cyclopentane-1,2-diol]

same assay, conditions: norepinephrine-stimulated lipolysis, glycerol assayed, 60 min; read-out: Lipo ec50

Row | EC50 [nM] | SMILES
22 | 18.6 | COC[C@H]1C[C@@H](n2cnc3c(N[C@H]4CCN(c5ccc(Cl)cn5)C4)ncnc32)[C@H](O)[C@@H]1O [Example 53, (1R,2S,3R,5R)-3-[6-[1-(5-chlorpyridin-2-yl)pyrrolidin-3(S)-ylamino]-purin-9-yl]-5-methoxymethylcyclopentane-1,2-diol]
23 | 114 | OC[C@H]1C[C@@H](n2cnc3c(N[C@H]4CCN(c5cc(C(F)(F)F)c(C(F)(F)F)cn5)C4)ncnc32)[C@H](O)[C@@H]1O [Example 38, (1R,2S,3R,5R)-3-[6-[1-(4,5-bistrifluorpyridin-2-yl)pyrrolidin-3(S)-ylamino]-purin-9-yl]-5-hydroxymethylcyclopentane-1,2-diol]
